Reference: the NIST ThermoML archive (doi:10.1016/j.jct.2015.11.007)
Numbers after ± are expanded uncertainties.

Tests used:
[1] = Crystal; DTA
[2] = Molar enthalpy of transition or fusion; settings: Crystal; DSC

Q: For `NC(=O)CN1CC(O)CC1=O` (configuration not stated) [4-hydroxy-2-oxo-1-pyrrolidineacetamide], which Normal melting temperature [1] is on record?
A: The Normal melting temperature was 172.13 ± 0.61 °C.

Q: What about the “Molar enthalpy of transition or fusion” value [2] of the same compound?
A: Its value is 8.29 ± 0.335 kcal/mol.
